{"source": "paper PMC6934184", "about": "“Selective DNA-PKcs inhibition extends the therapeutic index of localized radiotherapy and chemotherapy” (The Journal of Clinical Investigation, 2019)", "biological_target": "T1, RAF1 (cRAF) Y340D Y341D (Homo sapiens, UniProt P04049, Y340D/Y341D)", "T1 construct": "purchased Thermo Fisher Scientific (Life Technologies) SelectScreen", "T1 sequence (P04049 whole entry Y340D/Y341D)": "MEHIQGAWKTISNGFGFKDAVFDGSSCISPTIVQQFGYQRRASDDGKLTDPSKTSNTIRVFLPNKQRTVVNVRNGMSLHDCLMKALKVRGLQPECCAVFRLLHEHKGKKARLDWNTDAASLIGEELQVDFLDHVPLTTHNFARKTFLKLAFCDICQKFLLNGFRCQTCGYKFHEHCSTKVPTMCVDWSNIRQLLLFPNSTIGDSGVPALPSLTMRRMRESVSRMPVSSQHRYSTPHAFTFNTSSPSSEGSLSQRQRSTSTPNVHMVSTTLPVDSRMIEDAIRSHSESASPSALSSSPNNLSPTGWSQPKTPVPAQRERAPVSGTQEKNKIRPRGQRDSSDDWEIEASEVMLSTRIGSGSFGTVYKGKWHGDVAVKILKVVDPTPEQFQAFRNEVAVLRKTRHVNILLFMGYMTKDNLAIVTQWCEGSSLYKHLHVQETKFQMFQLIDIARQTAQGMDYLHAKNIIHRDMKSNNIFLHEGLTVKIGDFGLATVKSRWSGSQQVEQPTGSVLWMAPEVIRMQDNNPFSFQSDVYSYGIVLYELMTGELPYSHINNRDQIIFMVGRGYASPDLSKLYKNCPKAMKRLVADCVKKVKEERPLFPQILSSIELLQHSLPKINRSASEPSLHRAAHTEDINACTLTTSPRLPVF", "assay": "SelectScreen Z'LYTE", "format": "biochemical", "settings": "ATP 100 µM", "summary_of_the_method": "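SelectScreen broad panel; activity (Z'LYTE, Adapta) plus binding formats. ATP: Km app for CSF1R Z'LYTE; 10 for CAMK1 Adapta. Readout = % per kinase.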", "data": [{"compound": "CN(C(=O)CN1CCOCC1)c1ccc2sc3c(-c4cccc5c(=O)cc(N6CC7CCC(C6)O7)oc45)cccc3c2c1", "note": "[NU5455]", "values": [{"measurement": "inhibition at 1 µM", "result": 7.9, "unit": "%"}]}]}
